Results on two compounds are retold here after patent US9018252B2, “Stable compositions of dehydroascorbic acid” (priority 2010, dated 2015).

Data set [1] is described as follows: DHAA stability testing of ozone-oxidized glycerol/water solutions (Example 1). The class given is physicochemical. An excerpt:
(§1) AA concentration in solution is commonly measured as the reducing activity of the solution using starch-iodine titration methods that are well-known in the art. […] This method is also well known in the art. DHAA in solution can be converted into AA by reducing agents such as dithiothreitol (DTT) or tris(2-carboxyethyl)phosphine (TCEP), and its concentration is commonly measured spectrophotometrically as the difference in absorbance of a solution subjected to reduction by DTT or TCEP versus a similar solution that is not subjected to a reducing agent. These methods are also well-known in the art, but see Deutsch for examples. In the description, claims, and the following examples, DHAA in the compositions of the invention is the vitamin C that can be measured by the difference in absorbance at 262 nm using TCEP reducing agent.
A 15% AA solution in water was prepared by adding 15 grams AA per 100 mL purified water with stirring. A 15% solution of AA in glycerol was prepared by adding 15 grams AA per 100 mL pure USP glycerol and stirring with heat. A corona-discharge type ozone generator with feed-gas of pure oxygen was used to supply an oxidizing gas containing about 5% ozone, and each of the 15% AA solutions was subjected to oxidizing conditions by bubbling the oxidizing gas through the solution using a glass diffuser. The progress of AA oxidation in each solution was monitored by the disappearance of reducing activity as measured by starch-iodine titration. Each solution was subjected to the oxidizing conditions until all (>99%) of the original reducing activity had disappeared. The solution made with pure glycerol was labeled “100% Glycerol,” and the solution made with purified water was labeled “100% Water.” Portions of these two solutions were combined to produce solutions of various glycerol concentrations by weight, specifically “99% Glycerol,” “98% Glycerol,” “97% Glycerol,” “96% Glycerol,” “95% Glycerol”, “90% Glycerol,” and “50% Glycerol.” For example, 99 parts by weight of “100% Glycerol” was combined with 1 part by weight “100% Water” to produce the “99% Glycerol” solution.
Aliquots of each of the solutions prepared above were placed in translucent, screw-capped polyethylene vials and were stored at room temperature. No attempt was made to further protect the vials from ambient indoor light, and each vial contained a headspace of normal air. Each vial was periodically opened to remove a sample for stability testing over the next 229 days. The concentration of DHAA in each sample was measured by spectrometry on each testing day. The initial DHAA concentration of each solution on Day 1 was recorded and assigned a value of 100%, and the concentration on each subsequent stability test day was calculated as the percent remaining of the initial concentration.

Data set [2] in a line: DHAA stability testing of glycerol solution oxidized with activated charcoal and oxygen (Example 2). The class given is physicochemical. To be noted: "100% Glycerol", activated charcoal/oxygen oxidation, room temperature, 191 days.
From the text: as §1
A solution of AA in pure USP glycerol was subjected to oxidizing conditions by suspending activated charcoal in the solution and then bubbling pure oxygen through the solution. Oxidation of AA during this process was monitored by starch-iodine titration. After the desired amount of AA had been oxidized, the activated charcoal was removed from the solution by centrifugation and filtration. […] The concentration of DHAA in the sample was measured by spectrometry on each testing day. […]

Data set [3] in a line: DHAA stability testing of propylene glycol/water solutions oxidized with Fenton's Reagent (Example 3). The class given is physicochemical. To be noted: room temperature.
From the text: as §1
AA was dissolved in purified water to give a highly concentrated solution, and then sufficient 30% hydrogen peroxide was added to oxidize about half of the AA. Iron to catalyze the reaction was provided by addition of ferrous sulfate. Oxidation of the AA was monitored by spectrometry until the expected amount of AA had been oxidized. This solution was labeled “100% Water.” Portions of this solution were combined with portions of pure, USP grade propylene glycol to produce solutions of “97% Propylene Glycol,” “95% Propylene Glycol,” “90% Propylene Glycol,” “80% Propylene Glycol,” “70% Propylene Glycol,” and “50% Propylene Glycol.” For example, 3 parts by volume of the “100% Water” solution were combined with 97 parts by volume propylene glycol to yield the “97% Propylene Glycol” solution.
Aliquots of each of the solutions prepared above were placed in translucent, screw-capped polyethylene vials and were stored at room temperature. […] The concentration of DHAA in each sample was measured by spectrometry on each testing day. The initial DHAA concentration of each solution was recorded and assigned a value of 100% (Day 0), and the concentration on each subsequent stability test day was calculated as the percent remaining of the initial concentration.

A short description of data set [4]: DHAA stability testing of solutions with various AA:DHAA ratios (Example 4). The class given is physicochemical. The text has this:
AA concentration in solution is commonly measured as the reducing activity of the solution using starch-iodine titration methods that are well-known in the art. […] This method is also well known in the art. DHAA in solution can be converted into AA by reducing agents such as dithiothreitol (DTT) or tris(2-carboxyethyl)phosphine (TCEP), and its concentration is commonly measured spectrophotometrically as the difference in absorbance of a solution subjected to reduction by DTT or TCEP versus a similar solution that is not subjected to a reducing agent. These methods are also well-known in the art, but see Deutsch for examples. In the description, claims, and the following examples, DHAA in the compositions of the invention is the vitamin C that can be measured by the difference in absorbance at 262 nm using TCEP reducing agent. […]
Aliquots of each of the solutions prepared above were placed in transparent, screw-capped glass vials and were stored at room temperature. […] The concentration of DHAA in each sample was measured by spectrometry on each testing day. The initial DHAA concentration of each solution was recorded and assigned a value of 100% (Day 0), and the concentration on each subsequent stability test day was calculated as the percent remaining of the initial concentration.

The nature of data set [5]: Absorption of AA and DHAA into skin of human volunteers after topical application (Example 5). The class given is in vivo. To be noted: 1.4 mg/cm^2, after 4 hours. As to the method:
This solution was applied topically to the skin of human volunteers to compare the absorption rate of AA versus DHAA. To assess permeation into the stratum corneum, the solution was diluted 1:1 with water and applied at a rate of 1.4 mg/cm^2 to delineated skin surfaces and allowed 0, 2 or 4 hours for absorption. Each skin surface was then washed with deionized water, and the skin washings were collected and measured for AA and DHAA content. The amount absorbed at 2 and 4 hours was determined by subtraction from the amount present in the 0 hour washings.
Data points are the mean+/−SD of triplicate analyses on 4 subjects. The 2 and 4 hour values are the difference as percentage from the 0 hour (baseline) values, determined by analysis of skin washings. It can be seem that after 4 hours DHAA had absorbed into the skin at a rate about 12 times greater than AA, and that the total vitamin C content of the skin was increased at a much more rapid rate than applying AA alone. (Asterisks on FIG. 21 indicate the following: * Statistically significant at P<0.05. ** Statistically significant at P<0.01).

Data set [6] is described as follows: DHAA stability in polyol solutions (general statements). The class given is physicochemical.
For the next data set, the system named is human skin cells. To be noted: cited from earlier work.
Data set [7] concerns HSV-1, influenza virus, poliovirus. To be noted: cited from earlier work; for antiviral effects in vitro: viruses such as HSV-1, influenza virus, poliovirus.
For data set [8] the following is noted: solid form; cited from earlier work.

As to `O=C1O[C@H]([C@@H](O)CO)C(=O)C1=O` [DHAA, dehydroascorbic acid], the “DHAA stability compared with water” value in data set [1] (50% glycerol concentration, room temperature) is “only minor improvement”. Further, the “initial amount of DHAA remaining” value is on record as “less than 10%” in data set [1] ("100% Water" solution, room temperature, tested at 20 days); “less than 20%” in data set [3] ("100% Water" solution (Fenton's Reagent), after 5 days); “less than 20%” in data set [4] ("Control": 100% water, initial AA:DHAA about 1:1, room temperature, after 3 days). Besides, the “initial DHAA concentration remaining” value in data set [1] (pure glycerol ("100% Glycerol"), approximately 8 months of storage at room temperature) is “greater than 80%”. Moreover, the “DHAA stability” value was “preserved very well” in data set [1] (solutions containing high concentrations of glycerol, room temperature, up to 229 days); “excellent long-term stability” in [2]; “preserved very well” in data set [3] (solutions containing high concentrations of propylene glycol, 31 days); “preserved very well” in data set [4] (polyol (100% glycerin) solutions with AA:DHAA ratios between 2:1 and 99:1, room temperature, 30 days); “not stable” in data set [6] (polyol solutions with high water content (water to glycol/polyol at least 1:1)); “stable” in [6] (pure polyol solvents and solutions with polyol content greater than about 50 percent). Further, the “DHAA concentration over time” value in data set [3] (many of the propylene glycol solutions, 31 days) is reported as “increased significantly”. Further, the “rate of absorption into the skin, DHAA relative to AA” value in [5] is recorded as “about 12 times”. For the same compound, the “level absorbed into cells, DHAA relative to AA” value in the data set on human skin cells was 2 times. In addition, the “speed of absorption into cells, DHAA relative to AA” value with human skin cells is listed as “up to 5 times”. Besides, the “antiviral effects of DHAA compared with AA” value in data set [7] (in vitro) is reported as “much stronger”. The “antiviral effects in vitro” value in data set [7] is “antiviral effects”.
As for `O=C1O[C@H]([C@@H](O)CO)C(O)=C1O` [AA, ascorbic acid], in [7], the “antiviral effects in vitro” value is given as “antiviral effects”. Further, the “ease of dissolving the solid in water, AA compared with DHAA” value in data set [8] was “far more easily dissolved”.
